Patent publication US11760773B2, “Small molecule drug conjugates of gemcitabine monophosphate” (MaveriX Oncology, Inc., priority 2018, dated 2023)

Columns and labels:
[1] = in the clinic; cited from earlier work
[2] = Int 1-4 plasma PK in the male cynomolgus monkey (study f); format: in vivo; details: for C0: read-out: C0; for MRT inf: read-out: MRT0-inf; for MRT last: read-out: MRT0-last; for Vd: read-out: Vdss
Experimental: Objectives: to compare the plasma pharmacokinetics and stability of Int 1-4 in plasma following single intravenous infusion administration of Int 1-4 at 5 mg/kg and 10 mg/kg in the male cynomolgus monkey
PK measurements: compare PK parameters C0, CL, Vdss, Cmax, tmax, t, AUC(0-t), AUC(0-inf), MRT(0-t), MRT(0-inf) for Int 1-4

[3] = Metabolic stability in liver hepatocytes, monkey; format: in vitro ADME
[4] = system: UT-SCC-8; assay: Tumor cell proliferation (alamarBlue) cytotoxicity assay, UT-SCC-8; format: cell-based, human; details: Homo sapiens; UT-SCC-8, 72 hours treatment
Experimental: (§1) A tumor cell proliferation assay was used to determine cytotoxicity IC50 values for the phosphate prodrug Compounds 1-9, the parent non-phosphorylated SMDC parent compounds, and the effector (gemcitabine) across eight primary early-passage human head and neck squamous cell carcinoma cell lines including UT-SCC-5, UT-SCC-8, UT-SCC-9, UT-SCC-10, UT-SCC-14, UT-SCC-16A, UT-SCC-16B, and UT-SCC-24A.
(§2) UTSCC cells were seeded at 4000 cells/100 I/well on 96-well black clear-bottom tissue culture plate. Cells were incubated at 37° C. and 5% CO2 overnight to allow them to recover and re-attach. The next day cells were treated with the test compound (0-100 μM) for 72 hours. After treatment, cell proliferation was measured by Fluorescent quantitation of alamarBlue reagent. The alamarBlue assay incorporates a fluorometric/colorimetric growth indicator based on detection of metabolic activity. Specifically, resazurin, the active ingredient of alamarBlue reagent, is blue in color and virtually non-fluorescent. Upon entering cells, resazurin is reduced to resorufin, a compound that is red in color and highly fluorescent.
(§3) Continued cell growth maintains a reduced environment, therefore increasing the overall fluorescence and color of the media surrounding cells. The fluorescence intensity of alamarBlue reagent was directly proportional to cell number. To perform the alamarBlue assay, 10 I of alamarBlue reagent was added to each well and the plate was incubated at 37° C. for an additional 2 hour. Fluorescence intensity was measured at an excitation of 530 nm and an emission of 590 nm using a BioTek Synergy™ 2 microplate reader.
(§4) Cell proliferation assays in triplicate were performed at each concentration. The fluorescent intensity data were analyzed using the computer software, Graphpad Prism. In the absence of the compound, the fluorescent intensity (Ft) in each data set was defined as 100%. In the absence of cells, the fluorescent intensity (Fb) in each data set was defined as 0%. The percent cell in the presence of each compound was calculated according to the following equation: % cell=(F−Fb)/(Ft−Fb), where F=the fluorescent intensity in the presence of the compound, Fb=the fluorescent intensity in the absence of cells, and Ft=the fluorescent intensity in the absence of the compound. The values of % cell versus a series of compound concentrations were then plotted using non-linear regression analysis of Sigmoidal dose-response curve generated with the equation Y=B+(T−B)/1+10^((Log EC50-X)×Hill Slope) where Y=percent cell, B=minimum percent cell, T=maximum percent cell, X=logarithm of compound and Hill Slope=slope factor or Hill coefficient. The IC50 value was determined by the concentration causing a half-maximal percent activity.

[5] = Plasma PK of Int 3-3 in CD-1 mice (study c); format: in vivo; details: after iv Int 3-3 8.8 mg/kg
Experimental: Objectives: to determine the plasma pharmacokinetics of Int 3-3 following a single intravenous infusion of Int 3-3 at 8.83 mg/kg in CD-1 mice
PK measurements: compare PK parameters C0, CL, Vdss, Cmax, tmax, t1/2, AUC(0-t), AUC(0-inf), MRT(0-t), MRT(0-inf) for Int 3-3.

[6] = Comparative dog plasma PK of Int 1-4 versus gemcitabine (study k); format: in vivo; details: male beagle dog, after iv gemcitabine 5.29 mg/kg, read-out: MRT0-inf
[7] = system: UT-SCC-9; assay: Tumor cell proliferation (alamarBlue) cytotoxicity assay, UT-SCC-9; format: cell-based, human; details: Homo sapiens; UT-SCC-9, 72 hours treatment
Experimental: as §1, §2, §3, §4

[8] = system: UT-SCC-14; assay: Tumor cell proliferation (alamarBlue) cytotoxicity assay, UT-SCC-14; format: cell-based, human; details: Homo sapiens; UT-SCC-14, 72 hours treatment
Experimental: as §1, §2, §3, §4

[9] = system: UT-SCC-5; assay: Tumor cell proliferation (alamarBlue) cytotoxicity assay, UT-SCC-5; format: cell-based, human; details: Homo sapiens; UT-SCC-5, 72 hours treatment
Experimental: as §1, §2, §3, §4

[10] = Liver microsomal stability, human; format: in vitro ADME
[11] = Metabolic stability in liver hepatocytes, rat; format: in vitro ADME
[12] = Compound 1 and gemcitabine plasma PK in the male cynomolgus monkey (study h); format: in vivo; details: plasma; for AUC(0-inf): read-out: AUC0-inf; for MRT inf: read-out: MRT0-inf; for MRT last: read-out: MRT0-last
Experimental: Objectives: to compare the plasma pharmacokinetics and stability of the Compound 1 with Int 1-4 and in plasma following a single intravenous infusion administration of Compound 1 at 5 mg/kg and 10 mg/kg with equimolar gemcitabine at 2.28 mg/kg in male cynomolgous monkeys.
PK measurements: compare PK parameters C0, CL, Vdss, Cmax, tmax, t1/2, AUC(0-t), AUC(0-inf), MRT(0-t), MRT(0-inf) for Compound 1 and Int 1-4 with gemcitabine.

[13] = system: UT-SCC-16A; assay: Tumor cell proliferation (alamarBlue) cytotoxicity assay, UT-SCC-16A; format: cell-based, human; details: Homo sapiens, 72 hours treatment
Experimental: as §1, §2, §3, §4

[14] = Metabolic stability in liver hepatocytes, human; format: in vitro ADME
[15] = after iv Int 1-4 5 mg/kg (study f)
[16] = after iv Int 1-4 10 mg/kg (study f)
[17] = after iv gemcitabine 2.28 mg/kg

For `Nc1ccn([C@@H]2O[C@H](CO)[C@@H](O)C2(F)F)c(=O)n1` [Gemcitabine, gemcitabine], the “injected dose recovered in the urine” value [1] is listed as 90%, the “share of the dose recovered in urine found as this species” value [1] is listed as 1% and the clearance [2, 15] is listed as 3.71 mL/min/kg. The half-life [2, 15] was 2.82 min, the C0 [2, 15] was 20.5 ng/mL and the MRT inf [2, 15] was 20.5 h. For the same molecule, the MRT last [2, 15] was 11.4 min, the Vd [2, 15] was 0.11 L/kg and the clearance [2, 16] was 15.5 mL/min/kg. It also gave a half-life [2, 16] of 4.8 min, a C0 [2, 16] of 53.4 ng/mL and an MRT inf [2, 16] of 53.4 h. The MRT last [2, 16] was 18 min, the Vd [2, 16] was 0.19 L/kg and the “Slope Mean ± SE” value [3] was 0.001817 ± 0.001897. It also gave an IC50 [4] of 22 nM, an AUC0-inf/AUC0-last [5] of 113% and an AUC(0-t) ([5]; mouse) of 63.5 ng·h/mL. For the same molecule, the half-life ([5]; mouse) was 82.8 min, the AUC(0-inf) ([5]; mouse, read-out: AUC0-inf) was 71.9 ng·h/mL and the Cmax ([5]; mouse, read-out: Cmax) was 73.4 ng/mL. The MRT inf ([5]; mouse, read-out: MRT0-inf) was 101 min, the MRT last ([5]; mouse, read-out: MRT0-last) was 67.8 min and the Tmax ([5]; mouse, read-out: Tmax) was 3.67 min. It also gave an MRT inf [6] of 150 min, an IC50 [7] of 35 nM and an IC50 [8] of 6 nM. The IC50 [9] was 9 nM, the half-life ([10]; human liver microsomes) was 20.1 min and the “Compound Remaining (% of 0 min) 0 min” value ([10]; human liver microsomes, 0 min) was 100 % of 0 min. For the same molecule, the “Compound Remaining (% of 0 min) 5 min” value ([10]; human liver microsomes, 5 min) was 113 % of 0 min, the “Compound Remaining (% of 0 min) 15 min” value ([10]; human liver microsomes, 15 min) was 69.1 % of 0 min and the “Compound Remaining (% of 0 min) 30 min” value ([10]; human liver microsomes, 30 min) was 48.6 % of 0 min. The “Compound Remaining (% of 0 min) 45 min” value ([10]; human liver microsomes, 45 min) was 22.4 % of 0 min, the “Compound Remaining (% of 0 min) control” value ([10]; human liver microsomes, control) was 98.1 % of 0 min and the microsomal CLint ([10]; human, liver microsomes) was 68.8 µL/min/mg. The “Slope Mean ± SE” value [11] was 0.00055 ± 0.001504, the AUC(0-t) ([12]; after iv Compound 1 5 mg/kg) was 7.85 ng·h/mL and the half-life ([12]; after iv Compound 1 5 mg/kg) was 7.8 min. The AUC(0-inf) ([12]; after iv Compound 1 5 mg/kg) was 7 ng·h/mL, the MRT inf ([12]; after iv Compound 1 5 mg/kg) was 13.8 min and the MRT last ([12]; after iv Compound 1 5 mg/kg) was 11.4 min. For the same molecule, the AUC(0-t) [12, 17] was 164 ng·h/mL, the C0 [12, 17] was 13400 ng/mL and the clearance [12, 17] was 247 mL/min/kg. The half-life [12, 17] was 1.2 min, the AUC(0-inf) [12, 17] was 165 ng·h/mL and the MRT inf [12, 17] was 1.2 min. For the same molecule, the MRT last [12, 17] was 1.2 min, the Vd ([12]; after iv gemcitabine 2.28 mg/kg, read-out: Vdss) was 0.231 L/kg and the IC50 [13] was 61 nM. The “Slope Mean ± SE” value [14] was −0.00684 ± 0.001905 and the half-life ([14]; read-out: t1/2 mean ± SE) was 101 ± 28.2 min.
